US20240190922A1, “PEPTIDE PLATINUM COMPLEXES AND METHODS OF USE THEREOF” (priority 2020, published 2024)
Ends that are not written are not given here.

Test system: A375 cells (human skin melanoma derived cell line)
Experiment: A375 cell killing assay (CellTiter-Glo luminescence)
Assay type: cell-based
Conditions: for potency relative to Onco-001 (times more potent): from EC50 values
Protocol: Alternatively, A375 cells (human skin melanoma derived cell line) are harvested by centrifugation and then re-suspended in a culture medium. The cell density is adjusted, and cell suspension transferred to the assay multi-well plate. The marginal wells are filled with PBS. The assay plate is incubated in a cell incubator for about 16˜18 hours. Working solutions of test compounds and positive control at various concentrations are added to corresponding wells of the plate. The assay plate is then incubated for an additional 72 hours in a 37° C./5% CO2 incubator. After incubation, the working solution of CellTiter-Glo® reagent is added to the corresponding wells and shaken on an orbital shaker. The assay plate is incubated at room temperature for a short while to stabilize the luminescent signal. Luminescence signals are measured by a luminescence plate reader, such as PheraStar (BMG). Data are stored on a local computer or computer server for analysis.

Row | Substance | potency relative to Onco-001 (times more potent) | EC50 (72 hours incubation, CellTiter-Glo) [µM]
1 | Onco -005 (Ac-GPSRVGG; not fully specified (C-terminus); also: gamma-carboxyglutamic acid, no place given) | approximately 15 × | –
2 | Onco-003: formula (I): R1 and R2 form trans-R,R-1,2-diaminocyclohexane, R3 and R4 joined by bidentate peptide AcGPSRVGGCD | approximately 15 × | –
3 | cis-bis[AcGPSRVGGCNH2][trans-(1R,2R)-1,2-diaminocyclohexane]platinum(II) [Onco-001] | – | ~130
